The results in this text go back to patent publication US8877707B2, “Inhibitors of HCV NS5A” (Presidio Pharmaceuticals, Inc., priority 2010, dated 2014).

Read-outs that look alike come from different tables or passages of the source. A value given as a limit tells only on which side of the number the result lay.

The test system of the test is HCV genotype 1b replicon in Huh 7 cells. Nature of the test: HCV replicon assay (1b_Huh-Luc/Neo-ET cell line, luciferase readout). Format: cell-based. The following applies: Hepatitis C virus, read-out: Inhibition of HCV genotype 1b. The method, then: Biological activity of the compounds of the invention was determined using an HCV replicon assay. The 1b_Huh-Luc/Neo-ET cell line persistently expressing a bicistronic genotype 1b replicon in Huh 7 cells was obtained from ReBLikon GMBH. This cell line was used to test compound inhibition using luciferase enzyme activity readout as a measurement of compound inhibition of replicon levels.
On Day 1 (the day after plating), each compound is added in triplicate to the cells. Plates incubated for 72 h prior to running the luciferase assay. Enzyme activity was measured using a Bright-Glo Kit (cat. number E2620) manufactured by Promega Corporation. The following equation was used to generate a percent control value for each compound. % Control=(Average Compound Value/Average Control)*100
The EC50 value was determined using GraphPad Prism and the following equation: Y=Bottom+(Top−Bottom)/(1+10^((Log IC50−X)*HillSlope))
EC50 values of compounds are repeated several times in the replicon assay.

[1] abbreviates: Table 1, genotype 1b replicon, Huh 7 cells, 72 h, luciferase.
Setting [2] is: Table 2, genotype 1b replicon, Huh 7 cells, 72 h, luciferase.

As to `CNC(=O)N[C@@H](C(=O)N1CCC[C@H]1c1nc(-c2ccc3cc(-c4ccc(-c5cnc([C@@H]6CCCN6C(=O)[C@@H](NC(=O)OC)C(C)C)[nH]5)cc4)ccc3c2)c[nH]1)c1ccccc1` [14s], the EC50 (Huh-7, 72 h) was under 1 nM.
As for `COC(=O)N[C@H](C(=O)N1CCC[C@H]1c1ncc(-c2ccc3nc(-c4ccc5c(c4)CCc4nc([C@@H]6CCCN6C(=O)[C@@H](NC(=O)OC)C(C)C)[nH]c4-5)ccc3c2)[nH]1)C(C)C` [292-1], under setting [1], the EC50 was under 1 nM.
Still for that read-out and setting: the value for `COC(=O)N[C@H](C(=O)N1CCC[C@H]1c1nc2c([nH]1)-c1ccc(-c3ccc4cc(-c5cnc([C@@H]6CCCN6C(=O)[C@@H](NC(=O)OC)C6CCOCC6)[nH]5)ccc4n3)cc1CC2)C(C)C` [293-1] was under 1 nM; that for `COC(=O)N[C@H](C(=O)N1CCC[C@H]1c1nc2c([nH]1)-c1ccc(-c3ccc4cc(-c5cnc([C@@H]6CCCN6C(=O)[C@H](NC(=O)OC)c6ccccc6)[nH]5)ccc4n3)cc1CC2)C(C)C` [294-1] was under 1 nM; that for `COC(=O)N[C@H](C(=O)N1CCC[C@H]1c1nc2c([nH]1)-c1ccc(-c3ccc4cc(-c5cnc([C@@H]6CCCN6C(=O)[C@H](NC(=O)OC6CCOCC6)c6ccccc6)[nH]5)ccc4n3)cc1CC2)C(C)C` [295-1] was under 1 nM.
`COC[C@H](NC(=O)OC)C(=O)N1CCOC[C@H]1c1ncc(-c2ccc3cc(-c4ccc(-c5cnc([C@@H]6CCCN6C(=O)[C@H](NC(=O)OC)c6ccccc6)[nH]5)cc4)ccc3c2)[nH]1` [325-1]: under setting [2], the EC50 is under 1 nM.
The same measure, in the same setting: the value for `COC(=O)N[C@H](C(=O)N1CCC[C@H]1c1ncc(-c2ccc3cc(-c4ccc(-c5cnc([C@@H]6CCCN6C(=O)[C@H](NC(=O)OC)c6ccsc6)[nH]5)cc4)ccc3c2)[nH]1)[C@@H](C)OC` [330-1] was under 1 nM.
Turning to `COC(=O)N[C@H](C(=O)N1CCC[C@H]1c1ncc(-c2ccc3cc(-c4ccc(-c5cnc([C@@H]6CCCN6C(=O)[C@H](NC(=O)OC)c6cccs6)[nH]5)cc4)ccc3c2)[nH]1)[C@@H](C)OC` [331-1], the EC50 under setting [2] was under 1 nM.
The same measure, in the same setting: the result for `COC[C@H](NC(=O)OC)C(=O)N1CCC[C@H]1c1ncc(-c2ccc3cc(-c4ccc5nc([C@@H]6CCCN6C(=O)[C@H](COC)NC(=O)OC)[nH]c5c4)ccc3c2)[nH]1` [345-1] reads under 1 nM.
In the case of `COC[C@H](NC(=O)OC)C(=O)N1CCC[C@H]1c1ncc(-c2ccc3cc(-c4ccc5nc([C@@H]6COCCN6C(=O)[C@H](COC)NC(=O)OC)[nH]c5c4)ccc3c2)[nH]1` [358-1], under setting [2], the EC50 was under 1 nM.
Turning to `COC(=O)N[C@H](C(=O)N1CCC[C@H]1c1nc(-c2ccc3cc(-c4ccc(-c5cnc([C@@H]6CCCN6C(=O)[C@@H](NC(=O)OC)C(C)C)[nH]5)cc4)ccc3c2)c[nH]1)C(C)C` [compound 1], the EC50 under setting [1] is under 1 nM.
For the molecule `COC(=O)N[C@@H](C(=O)N1CCC[C@H]1c1nc(-c2ccc3cc(-c4ccc(-c5cnc([C@@H]6CCCN6C(=O)[C@H](NC(=O)OC)C(C)C)[nH]5)cc4)ccc3c2)c[nH]1)C(C)C` [compound 2], under setting [1], the EC50 fell in the range of 1 to 9.9 nM.
Turning to `COC(=O)N[C@H](C(=O)N1CCC[C@H]1c1nc(-c2ccc3cc(-c4ccc(-c5cnc([C@@H]6CCCN6C(=O)[C@@H](NC(=O)OC)[C@@H](C)OC)[nH]5)cc4)ccc3c2)c[nH]1)[C@@H](C)OC` [compound 3], the EC50 under setting [1] is under 1 nM.
On to `COC(=O)N[C@H](C(=O)N1CCC[C@H]1c1nc(-c2ccc3cc(-c4ccc(-c5cnc([C@@H]6CCCN6C(=O)[C@@H](NC(=O)OC)[C@@H](C)O)[nH]5)cc4)ccc3c2)c[nH]1)[C@@H](C)O` [compound 4], for which the EC50 under setting [1] was under 1 nM.
Regarding `COC(=O)N[C@H](C(=O)N1CCC[C@H]1c1nc(-c2ccc3cc(-c4ccc(-c5cnc([C@@H]6CCCN6C(=O)[C@@H](c6ccccc6)N(C)C)[nH]5)cc4)ccc3c2)c[nH]1)C(C)C` [compound 5], the EC50 under setting [1] is under 1 nM.
For `COC(=O)N[C@H](C(=O)N1CCC[C@H]1c1ncc(-c2ccc(-c3ccc4cc(-c5c[nH]c([C@@H]6CCCN6C(=O)[C@@H](c6ccccc6)N(C)C)n5)ccc4c3)cc2)[nH]1)C(C)C` [compound 6], the EC50 under setting [1] is under 1 nM.
Turning to `COC(=O)N[C@H](C(=O)N1CCC[C@H]1c1ncc(-c2ccc(-c3ccc4cc(-c5c[nH]c([C@@H]6CCCN6C(=O)[C@H](NC(=O)OC)c6ccccc6)n5)ccc4c3)cc2)[nH]1)C(C)C` [compound 7], the EC50 under setting [1] was under 1 nM.
As to `COC(=O)N[C@H](C(=O)N1CCC[C@H]1c1nc(-c2ccc3cc(-c4ccc(-c5cnc([C@@H]6CCCN6C(=O)[C@H](NC(=O)OC)c6ccccc6)[nH]5)cc4)ccc3c2)c[nH]1)C(C)C` [compound 8], the EC50 under setting [1] was under 1 nM.
Turning to `COC(=O)N[C@H](C(=O)N1CCC[C@H]1c1ncc(-c2ccc(-c3ccc4cc(-c5c[nH]c([C@@H]6CCCN6C(=O)[C@@H](c6ccccc6)N6CCCC6)n5)ccc4c3)cc2)[nH]1)C(C)C` [compound 9], the EC50 under setting [1] is under 1 nM.
Turning to `COC(=O)N[C@H](C(=O)N1CCC[C@H]1c1nc(-c2ccc3cc(-c4ccc(-c5cnc([C@@H]6CCCN6C(=O)[C@@H](c6ccccc6)N6CCCC6)[nH]5)cc4)ccc3c2)c[nH]1)C(C)C` [compound 10], the EC50 under setting [1] was under 1 nM.
Still for that read-out and setting: the value for `COC(=O)N[C@H](C(=O)N1CCC[C@H]1c1nc(-c2ccc3nc(-c4ccc(-c5cnc([C@@H]6CCCN6C(=O)[C@@H](NC(=O)OC)C(C)C)[nH]5)cc4)cnc3c2)c[nH]1)C(C)C` [compound 11] was under 1 nM; that for `COC(=O)N[C@H](C(=O)N1CCC[C@H]1c1ncc(-c2ccc(-c3cnc4ccc(-c5cnc([C@@H]6CCCN6C(=O)[C@@H](NC(=O)OC)C(C)C)[nH]5)cc4n3)cc2)[nH]1)C(C)C` [compound 12] was 1 to 9.9 nM.
Turning to `COC(=O)N[C@H](C(=O)N1CCC[C@H]1c1nc(-c2ccc3cc(-c4ccc(-c5cnc([C@@H]6CCCN6C(=O)[C@@H](NC(=O)OC)C(C)C)[nH]5)cn4)ccc3c2)c[nH]1)C(C)C` [compound 13], under setting [1], the EC50 was under 1 nM.
Regarding `COC(=O)N[C@H](C(=O)N1CCC[C@H]1c1ncc(-c2ccc(-c3ccc4cc(-c5c[nH]c([C@@H]6CCCN6C(=O)[C@H](NC(=O)N6CC[C@H](O)C6)c6ccccc6)n5)ccc4c3)cc2)[nH]1)C(C)C` [compound 15], the EC50 under setting [1] was under 1 nM.
Still for that read-out and setting: the result for `COC(=O)N[C@H](C(=O)N1CCC[C@H]1c1nc(-c2ccc3cc(-c4ccc(-c5cnc([C@@H]6CCCN6C(=O)[C@H](NC(=O)N6CC[C@H](O)C6)c6ccccc6)[nH]5)cc4)ccc3c2)c[nH]1)C(C)C` [compound 16] reads under 1 nM.
Same read-out and setting: the value for `COC(=O)N[C@H](C(=O)N1CCC[C@H]1c1nc(-c2ccc3nc(-c4ccc(-c5cnc([C@@H]6CCCN6C(=O)[C@@H](NC(=O)OC)C(C)C)[nH]5)cc4)ncc3c2)c[nH]1)C(C)C` [compound 17] was under 1 nM; that for `CNC(=O)N[C@@H](C(=O)N1CCC[C@H]1c1ncc(-c2ccc(-c3ccc4cc(-c5c[nH]c([C@@H]6CCCN6C(=O)[C@@H](NC(=O)OC)C(C)C)n5)ccc4c3)cc2)[nH]1)c1ccccc1` [compound 18] was under 1 nM; that for `COC(=O)N[C@H](C(=O)N1CCC[C@H]1c1nc(-c2cnc3cc(-c4ccc(-c5cnc([C@@H]6CCCN6C(=O)[C@@H](NC(=O)OC)C(C)C)[nH]5)cc4)ccc3c2)c[nH]1)C(C)C` [compound 19] was under 1 nM.
With `COC(=O)N[C@H](C(=O)N1CCC[C@H]1c1ncc(-c2ccc(-c3cccc4c(-c5cnc([C@@H]6CCCN6C(=O)[C@@H](NC(=O)OC)C(C)C)[nH]5)cccc34)cc2)[nH]1)C(C)C` [compound 20], under setting [1], the EC50 is under 1 nM.
The same measure, in the same setting: the result for `COC(=O)N[C@H](C(=O)N1CCC[C@H]1c1nc(-c2ccc3cc(-c4ccc(-c5cnc([C@@H]6CCCN6C(=O)[C@@H](NC(=O)OC)C(C)C)[nH]5)cc4)cnc3c2)c[nH]1)C(C)C` [compound 21] reads under 1 nM; that for `COC(=O)N[C@H](C(=O)N1CCC[C@H]1c1nc(-c2ccc3cc(-c4ccc(-c5cnc([C@@H]6CCCN6C(=O)[C@@H](NC(=O)OC)C(C)C)[nH]5)cc4)ncc3c2)c[nH]1)C(C)C` [compound 22], under 1 nM.
Regarding `COC(=O)N[C@H](C(=O)N1CCC[C@H]1c1ncc(-c2ccc(-c3ccc4cc(-c5c[nH]c([C@@H]6CCCN6C(=O)[C@H](NC(=O)NC(C)(C)C)c6ccccc6)n5)ccc4c3)cc2)[nH]1)C(C)C` [compound 23], under setting [1], the EC50 was under 1 nM.
Regarding `COC(=O)N[C@H](C(=O)N1CCC[C@H]1c1nc(-c2ccc3cc(-c4ccc(-c5cnc([C@@H]6CCCN6C(=O)[C@H](NC(=O)NC6CC6)c6ccccc6)[nH]5)cc4)ccc3c2)c[nH]1)C(C)C` [compound 24], under setting [1], the EC50 was under 1 nM.
The same measure, in the same setting: the result for `COC(=O)N[C@H](C(=O)N1CCC[C@H]1c1nc(-c2ccc3cc(-c4ccc(-c5cnc([C@@H]6CCCN6C(=O)[C@H](NC(=O)NC(C)(C)C)c6ccccc6)[nH]5)cc4)ccc3c2)c[nH]1)C(C)C` [compound 25] reads under 1 nM; that for `COC(=O)N[C@H](C(=O)N1CCC[C@H]1c1nc(-c2ccc3nc(-c4ccc(-c5cnc([C@@H]6CCCN6C(=O)[C@H](NC(=O)OC)c6ccccc6)[nH]5)cc4)ccc3c2)c[nH]1)C(C)C` [compound 26], under 1 nM; that for `CCNC(=O)N[C@@H](C(=O)N1CCC[C@H]1c1ncc(-c2ccc(-c3ccc4cc(-c5c[nH]c([C@@H]6CCCN6C(=O)[C@@H](NC(=O)OC)C(C)C)n5)ccc4c3)cc2)[nH]1)c1ccccc1` [compound 27], under 1 nM.
As for `CCNC(=O)N[C@@H](C(=O)N1CCC[C@H]1c1nc(-c2ccc3cc(-c4ccc(-c5cnc([C@@H]6CCCN6C(=O)[C@@H](NC(=O)OC)C(C)C)[nH]5)cc4)ccc3c2)c[nH]1)c1ccccc1` [compound 28], under setting [1], the EC50 was under 1 nM.
